Source: patent US20250171495A1, “MUTLI-TARGETED SERINE PROTEASE INHIBITORS FOR TREATMENT OF CANCER AND VIRAL INFECTION” (Washington University, priority 2023, published 2025)

How the values were obtained:
Assay type in all cases: biochemical
TMPRSS2 = TMPRSS2 (Homo sapiens, UniProt O15393); assay: PS-SCL / HyCoSuL substrate specificity screening, TMPRSS2; conditions: for P2 Position Substrate Activity for TMPRSS2 (percent substrate cleavage/proteolysis): residue fixed at P2 position of substrate library
hepsin = biological target: T1, hepsin (Homo sapiens, UniProt P05981); assay: HyCoSuL P4-P2 substrate specificity screening, hepsin; conditions: for P2 Position Substrate Activity for hepsin (percent substrate cleavage/proteolysis): residue fixed at P2 position; for P3 Position Various Amino Acids Substrate Activity, hepsin (percent substrate cleavage/proteolysis): residue fixed at P3 position of substrate library; for P4 Position Various Amino Acids Substrate Activity, hepsin (percent substrate proteolysis/cleavage): residue fixed at P4 position of substrate library
T1 construct: purchased R&D Systems 4776-SE-010

matriptase = biological target: T2, matriptase (Homo sapiens, UniProt Q9Y5Y6); assay: HyCoSuL P4-P2 substrate specificity screening, matriptase; conditions: for P2 Position Substrate Activity for matriptase (percent substrate cleavage/proteolysis): residue fixed at P2 position; for P3 Position Various Amino Acids Substrate Activity, matriptase (percent substrate cleavage/proteolysis): residue fixed at P3 position of substrate library; for P4 Position Various Amino Acids Substrate Activity, matriptase (percent substrate proteolysis/cleavage): residue fixed at P4 position of substrate library
T2 sequence (Q9Y5Y6 1-855): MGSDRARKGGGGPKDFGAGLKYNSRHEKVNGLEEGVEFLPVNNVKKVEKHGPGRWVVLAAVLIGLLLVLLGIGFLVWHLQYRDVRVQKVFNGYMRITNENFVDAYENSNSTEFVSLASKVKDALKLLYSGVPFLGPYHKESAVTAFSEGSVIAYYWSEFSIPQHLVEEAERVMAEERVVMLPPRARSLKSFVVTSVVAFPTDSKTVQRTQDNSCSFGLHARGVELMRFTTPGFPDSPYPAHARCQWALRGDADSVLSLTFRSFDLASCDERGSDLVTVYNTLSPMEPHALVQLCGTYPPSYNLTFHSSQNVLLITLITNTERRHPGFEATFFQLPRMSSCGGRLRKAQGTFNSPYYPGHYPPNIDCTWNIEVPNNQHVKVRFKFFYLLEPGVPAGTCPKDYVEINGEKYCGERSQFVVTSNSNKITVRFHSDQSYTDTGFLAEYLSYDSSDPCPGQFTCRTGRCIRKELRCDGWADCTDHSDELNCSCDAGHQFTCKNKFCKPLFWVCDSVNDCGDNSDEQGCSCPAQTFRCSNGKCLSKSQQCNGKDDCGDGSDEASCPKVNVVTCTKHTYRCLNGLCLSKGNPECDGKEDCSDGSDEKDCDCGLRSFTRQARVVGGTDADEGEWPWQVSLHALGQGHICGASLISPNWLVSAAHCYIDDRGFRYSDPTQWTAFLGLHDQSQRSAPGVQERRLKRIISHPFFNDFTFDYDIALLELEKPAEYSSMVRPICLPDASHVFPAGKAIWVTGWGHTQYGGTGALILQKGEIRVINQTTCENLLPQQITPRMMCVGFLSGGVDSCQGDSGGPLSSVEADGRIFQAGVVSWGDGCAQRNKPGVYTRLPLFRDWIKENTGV

HGFA = biological target: T3, HGFA (Homo sapiens, UniProt Q04756); assay: HyCoSuL P4-P2 substrate specificity screening, HGFA; conditions: for P2 Position Substrate Activity for HGFA (percent substrate cleavage/proteolysis): residue fixed at P2 position; for P3 Position Various Amino Acids Substrate Activity, HGFA (percent substrate cleavage/proteolysis): residue fixed at P3 position of substrate library; for P4 Position Various Amino Acids Substrate Activity, HGFA (percent substrate proteolysis/cleavage): residue fixed at P4 position of substrate library
T3 sequence (Q04756 373-655): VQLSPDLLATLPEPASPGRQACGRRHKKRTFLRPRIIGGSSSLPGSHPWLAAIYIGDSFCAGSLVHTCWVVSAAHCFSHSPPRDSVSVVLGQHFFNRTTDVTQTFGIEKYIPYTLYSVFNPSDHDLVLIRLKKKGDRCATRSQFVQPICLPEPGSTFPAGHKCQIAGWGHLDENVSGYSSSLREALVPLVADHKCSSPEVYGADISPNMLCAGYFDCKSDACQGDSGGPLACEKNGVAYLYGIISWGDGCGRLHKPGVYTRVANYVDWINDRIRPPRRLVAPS

[1] = best recognized amino acid set to 100%
[2] = residue fixed at P3 position of substrate library
[3] = residue fixed at P4 position of substrate library
[4] = P1-Arg HyCoSuL, 100 μM, best recognized amino acid set to 100%
[5] = residue fixed at P3 position, P1-Arg HyCoSuL, 100 μM, best recognized amino acid set to 100%
[6] = residue fixed at P4 position, P1-Arg HyCoSuL, 100 μM, best recognized amino acid set to 100%

Chain of TMPRSS2 (O15393 whole entry): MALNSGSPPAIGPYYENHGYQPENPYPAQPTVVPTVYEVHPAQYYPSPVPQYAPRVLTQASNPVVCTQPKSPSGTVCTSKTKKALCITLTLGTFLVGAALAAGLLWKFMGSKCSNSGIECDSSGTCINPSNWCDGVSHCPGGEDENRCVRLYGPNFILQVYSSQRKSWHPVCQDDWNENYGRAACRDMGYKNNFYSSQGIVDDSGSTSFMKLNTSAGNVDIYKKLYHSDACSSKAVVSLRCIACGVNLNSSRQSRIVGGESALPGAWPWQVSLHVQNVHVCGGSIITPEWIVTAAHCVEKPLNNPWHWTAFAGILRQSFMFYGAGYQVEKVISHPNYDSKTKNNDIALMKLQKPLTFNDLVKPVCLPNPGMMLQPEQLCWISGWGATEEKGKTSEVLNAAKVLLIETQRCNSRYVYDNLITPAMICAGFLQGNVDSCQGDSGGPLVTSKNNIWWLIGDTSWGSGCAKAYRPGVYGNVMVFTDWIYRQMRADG
T1 sequence (P05981 163-417 limits assumed): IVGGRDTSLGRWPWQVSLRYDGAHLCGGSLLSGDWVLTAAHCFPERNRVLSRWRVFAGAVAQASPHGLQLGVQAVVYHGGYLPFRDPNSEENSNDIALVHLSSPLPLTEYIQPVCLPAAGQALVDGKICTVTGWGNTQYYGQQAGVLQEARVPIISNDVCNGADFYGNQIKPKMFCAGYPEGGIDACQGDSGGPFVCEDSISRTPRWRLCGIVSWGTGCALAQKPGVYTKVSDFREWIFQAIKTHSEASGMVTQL
T1 sequence (P05981 1-162 partner limits assumed): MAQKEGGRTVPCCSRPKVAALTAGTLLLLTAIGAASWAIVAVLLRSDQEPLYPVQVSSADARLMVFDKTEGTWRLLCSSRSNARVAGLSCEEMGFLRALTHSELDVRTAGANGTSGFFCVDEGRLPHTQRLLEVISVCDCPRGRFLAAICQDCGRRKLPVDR

| P2 Position Substrate Activity for TMPRSS2 (percent substrate cleavage/proteolysis) (TMPRSS2; [1]) [%] | P3 Position Various Amino Acids Substrate Activity, TMPRSS2 (percent substrate cleavage/proteolysis) (TMPRSS2; [2]) [%] | P4 Position Various Amino Acids Substrate Activity, TMPRSS2 (percent substrate proteolysis/cleavage) (TMPRSS2; [3]) [%] | P2 Position Substrate Activity for hepsin (percent substrate cleavage/proteolysis) (hepsin; [4]) [%] | P3 Position Substrate Activity for hepsin (percent substrate cleavage/proteolysis) (hepsin; [5]) [%] | P4 Position Substrate Activity for hepsin (percent substrate cleavage/proteolysis) (hepsin; [6]) [%] | P2 Position Substrate Activity for matriptase (percent substrate cleavage/proteolysis) (matriptase; [4]) [%] | P3 Position Various Amino Acids Substrate Activity, matriptase (percent substrate cleavage/proteolysis) (matriptase) [%] | P3 Position Substrate Activity for matriptase (percent substrate cleavage/proteolysis) (matriptase; [5]) [%] | P4 Position Various Amino Acids Substrate Activity, matriptase (percent substrate proteolysis/cleavage) (matriptase) [%] | P4 Position Substrate Activity for matriptase (percent substrate cleavage/proteolysis) (matriptase; [6]) [%] | P3 Position Substrate Activity for TMPRSS2 (percent substrate cleavage/proteolysis) (TMPRSS2; residue fixed at P3 position of substrate library, best recognized amino acid set to 100%) [%] | P4 Position Substrate Activity for TMPRSS2 (percent substrate cleavage/proteolysis) (TMPRSS2; residue fixed at P4 position of substrate library, best recognized amino acid set to 100%) [%] | P2 Position Substrate Activity for HGFA (percent substrate cleavage/proteolysis) (HGFA; [4]) [%] | P3 Position Substrate Activity for HGFA (percent substrate cleavage/proteolysis) (HGFA; [5]) [%] | P4 Position Substrate Activity for HGFA (percent substrate cleavage/proteolysis) (HGFA; [6]) [%] | P3 Position Various Amino Acids Substrate Activity, hepsin (percent substrate cleavage/proteolysis) (hepsin) [%] | P4 Position Various Amino Acids Substrate Activity, hepsin (percent substrate proteolysis/cleavage) (hepsin) [%] | P3 Position Various Amino Acids Substrate Activity, HGFA (percent substrate cleavage/proteolysis) (HGFA) [%] | P4 Position Various Amino Acids Substrate Activity, HGFA (percent substrate proteolysis/cleavage) (HGFA) [%] | Compound |
| --- | --- | --- | --- | --- | --- | --- | --- | --- | --- | --- | --- | --- | --- | --- | --- | --- | --- | --- | --- | --- |
| 52.14 |  |  | 0.00 | 82.17 | 91.83 | 0 | 75 | 75.40 | 49 | 48.54 | 71.88 | 63.90 | 0.00 | 30.67 | 16.90 |  |  |  |  | N[C@@H](CCCCOCc1ccccc1)C(=O)O [L-Nle(O-Bzl)] |
| 24.73 | 0.00 | 15.31 | 10.66 |  |  | 10 | 0 |  | 11 |  |  |  | 1.75 |  |  | 1.64 | 34.68 | 0.83 | 9.25 | O=C(O)[C@@H]1CCCCN1 [L-Pip] |
| 32.33 | 21.50 | 16.80 | 7.81 |  |  | 1 | 7 |  | 6 |  |  |  | 1.12 |  |  | 0.00 | 0.00 | 18.14 | 2.49 | Cn1cc(C[C@H](N)C(=O)O)c2ccccc21 [L-Trp(Me)] |

More lines, now with the values behind:

| Compound | P2 Position Substrate Activity for TMPRSS2 (percent substrate cleavage/proteolysis) (TMPRSS2; [1]) [%] | P3 Position Various Amino Acids Substrate Activity, TMPRSS2 (percent substrate cleavage/proteolysis) (TMPRSS2; [2]) [%] | P4 Position Various Amino Acids Substrate Activity, TMPRSS2 (percent substrate proteolysis/cleavage) (TMPRSS2; [3]) [%] | P2 Position Substrate Activity for hepsin (percent substrate cleavage/proteolysis) (hepsin; [4]) [%] | P3 Position Substrate Activity for hepsin (percent substrate cleavage/proteolysis) (hepsin; [5]) [%] | P4 Position Substrate Activity for hepsin (percent substrate cleavage/proteolysis) (hepsin; [6]) [%] | P2 Position Substrate Activity for matriptase (percent substrate cleavage/proteolysis) (matriptase; [4]) [%] | P3 Position Various Amino Acids Substrate Activity, matriptase (percent substrate cleavage/proteolysis) (matriptase) [%] | P3 Position Substrate Activity for matriptase (percent substrate cleavage/proteolysis) (matriptase; [5]) [%] | P4 Position Various Amino Acids Substrate Activity, matriptase (percent substrate proteolysis/cleavage) (matriptase) [%] | P4 Position Substrate Activity for matriptase (percent substrate cleavage/proteolysis) (matriptase; [6]) [%] | P3 Position Substrate Activity for TMPRSS2 (percent substrate cleavage/proteolysis) (TMPRSS2; residue fixed at P3 position of substrate library, best recognized amino acid set to 100%) [%] | P4 Position Substrate Activity for TMPRSS2 (percent substrate cleavage/proteolysis) (TMPRSS2; residue fixed at P4 position of substrate library, best recognized amino acid set to 100%) [%] | P2 Position Substrate Activity for HGFA (percent substrate cleavage/proteolysis) (HGFA; [4]) [%] | P3 Position Substrate Activity for HGFA (percent substrate cleavage/proteolysis) (HGFA; [5]) [%] | P4 Position Substrate Activity for HGFA (percent substrate cleavage/proteolysis) (HGFA; [6]) [%] | P3 Position Various Amino Acids Substrate Activity, hepsin (percent substrate cleavage/proteolysis) (hepsin) [%] | P4 Position Various Amino Acids Substrate Activity, hepsin (percent substrate proteolysis/cleavage) (hepsin) [%] | P3 Position Various Amino Acids Substrate Activity, HGFA (percent substrate cleavage/proteolysis) (HGFA) [%] | P4 Position Various Amino Acids Substrate Activity, HGFA (percent substrate proteolysis/cleavage) (HGFA) [%] |
| --- | --- | --- | --- | --- | --- | --- | --- | --- | --- | --- | --- | --- | --- | --- | --- | --- | --- | --- | --- | --- |
| NC1(C(=O)O)CCCC1 [AC5C] | 0.00 | 0.00 | 17.02 |  |  |  |  |  |  |  |  |  |  |  |  |  |  |  |  |  |
| N[C@@H](Cc1ccc(F)cc1)C(=O)O [L-Phe(4-F)] | 100.00 | 14.82 | 21.80 | 32.86 |  |  | 65 | 11 |  | 8 |  |  |  | 4.84 |  |  | 5.16 | 27.78 | 15.01 | 11.22 |
| L-Met | 8.64 | 45.55 | 38.95 |  |  |  | 5 | 41 |  |  |  |  |  |  |  |  |  |  |  |  |
